Assay results from PMC7531004, “Discovery of gramicidin A analogues with altered activities by multidimensional screening of a one-bead-one-compound library” (Nature Communications, 2020).
Where a SMILES comes first, the peptide text is derived from it. [ ]: non-standard residue; d: D form. The star is where a group is joined. NHCH2CH2OH = OCCN*; For = O=C*

Experiments:
[1] = H+/Na+ transport assay of bead-derived peptides (one-point); assay type: biochemical; parameters: key: relative activity; mean of two control wells = 1.00; conditions: bead-derived peptide solution, EYPC/EYPG LUVs;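 note: relative to parent gramicidin A activity set to 1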
Procedure, shortened: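 Values are normalized fluorescence, with Triton X-100 defining 100% and untreated LUVs 0%, and the two control wells averaging 1.00. Vesicles carried 1.0 mM pyranine and included egg yolk phosphatidylglycerol. Peptides were incubated with them 30 min at room temperature.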

[2] = cell viability/%
Procedure, shortened: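 Peptide stocks diluted 250× in growth medium; P388 cells 1 × 10^4 cells/mL final; 37 °C, 5% CO2, 92 h. WST-1 + 1-methoxy PMS, 4 h, A415. Output: % viability.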

[3] = test system: Streptococcus pyogenes SSI-9; assay: Antibacterial activity assay of bead-derived peptides (three concentrations); assay type: cell-based; parameters: key: +++: inhibition by the 640-fold diluted peptide solution; ++: inhibition by the 160-fold diluted solution; +: inhibition by the 40-fold diluted solution; -: no inhibition; conditions: S. pyogenes, bead-derived peptide solution, three concentrations
Procedure, shortened: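 First, each peptide stock was diluted 4- and 16-fold in DMSO; next, the three solutions were mixed with S. pyogenes SSI-9 suspension (2 × 10^5 CFU) in cation-adjusted Mueller Hinton Broth plus 5% laked horse blood; finally, plates stood 18 h at 37 °C before checking for grown-cell precipitation.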

Row | SMILES | H+/Na+ transport activity normalized against the value of 1 (1.00) [1] | viability [2] [%] | antibacterial activity [3]
1 | CC(C)C[C@@H](NC(=O)[C@H](Cc1c[nH]c2ccccc12)NC(=O)[C@H](NC(=O)[C@@H](NC(=O)[C@H](NC(=O)[C@H](C)NC(=O)[C@H](NC(=O)[C@H](C)NC(=O)CNC(=O)[C@@H](NC=O)C(C)C)C(C)C)C(C)C)C(C)C)[C@H](C)O)C(=O)N[C@@H](Cc1c[nH]c2ccccc12)C(=O)N[C@H](CC(C)C)C(=O)N[C@@H](Cc1c[nH]c2ccccc12)C(=O)N[C@@H](C(=O)N[C@@H](Cc1c[nH]c2ccccc12)C(=O)NCCO)C(C)C [compound 1523] (For-VGA[dV]A[dV]V[dT]W[dL]W[dL]W[dV]W-NHCH2CH2OH) | 1.04 | 100 | +
2 | CC(C)C[C@@H](NC(=O)[C@H](C)NC(=O)CNC(=O)[C@@H](NC=O)C(C)C)C(=O)N[C@@H](C)C(=O)N[C@@H](C(=O)N[C@H](C(=O)N[C@@H](C(=O)N[C@@H](Cc1c[nH]c2ccccc12)C(=O)N[C@@H](C(=O)N[C@@H](Cc1c[nH]c2ccccc12)C(=O)N[C@H](CC(C)C)C(=O)N[C@@H](Cc1c[nH]c2ccccc12)C(=O)N[C@H](CC(C)C)C(=O)N[C@@H](Cc1c[nH]c2ccccc12)C(=O)NCCO)[C@H](C)O)C(C)C)C(C)C)[C@H](C)O [compound 1592] (For-VGA[dL]A[dT]V[dV]W[dT]W[dL]W[dL]W-NHCH2CH2OH) | 1.03 | 100 | -
3 | CC(C)C[C@@H](NC(=O)[C@H](C)NC(=O)CNC(=O)[C@@H](NC=O)C(C)C)C(=O)N[C@@H](C)C(=O)N[C@H](CC(C)C)C(=O)N[C@H](C(=O)N[C@@H](C(=O)N[C@@H](Cc1c[nH]c2ccccc12)C(=O)N[C@@H](C(=O)N[C@@H](Cc1c[nH]c2ccccc12)C(=O)N[C@H](CC(C)C)C(=O)N[C@@H](Cc1c[nH]c2ccccc12)C(=O)N[C@H](CC(C)C)C(=O)N[C@@H](Cc1c[nH]c2ccccc12)C(=O)NCCO)C(C)C)[C@H](C)O)C(C)C [compound 1631] (For-VGA[dL]A[dL]V[dT]W[dV]W[dL]W[dL]W-NHCH2CH2OH) | 1.04 | 100 | -
4 | CC(C)C[C@@H](NC(=O)[C@H](C)NC(=O)CNC(=O)[C@@H](NC=O)C(C)C)C(=O)N[C@@H](C)C(=O)N[C@@H](C(=O)N[C@H](C(=O)N[C@@H](C(=O)N[C@@H](Cc1c[nH]c2ccccc12)C(=O)N[C@H](CC(C)C)C(=O)N[C@@H](Cc1c[nH]c2ccccc12)C(=O)N[C@@H](C(=O)N[C@@H](Cc1c[nH]c2ccccc12)C(=O)N[C@H](CC(C)C)C(=O)N[C@@H](Cc1c[nH]c2ccccc12)C(=O)NCCO)C(C)C)[C@H](C)O)C(C)C)C(C)C [compound 1711] (For-VGA[dL]A[dV]V[dT]W[dL]W[dV]W[dL]W-NHCH2CH2OH) | 1.01 | 100 | -
5 | CC(C)C[C@@H](NC(=O)[C@H](C)NC(=O)CNC(=O)[C@@H](NC=O)C(C)C)C(=O)N[C@@H](C)C(=O)N[C@H](CC(C)C)C(=O)N[C@H](C(=O)N[C@@H](C(=O)N[C@@H](Cc1c[nH]c2ccccc12)C(=O)N[C@H](CC(C)C)C(=O)N[C@@H](Cc1c[nH]c2ccccc12)C(=O)N[C@H](CC(C)C)C(=O)N[C@@H](Cc1c[nH]c2ccccc12)C(=O)N[C@@H](C(=O)N[C@@H](Cc1c[nH]c2ccccc12)C(=O)NCCO)C(C)C)C(C)C)C(C)C [compound 1796] (For-VGA[dL]A[dL]V[dV]W[dL]W[dL]W[dV]W-NHCH2CH2OH) | 1.09 | 0 | -
6 | CC(C)C[C@@H](NC(=O)[C@H](C)NC(=O)CNC(=O)[C@@H](NC=O)C(C)C)C(=O)N[C@@H](C)C(=O)N[C@@H](C(=O)N[C@H](C(=O)N[C@@H](C(=O)N[C@@H](Cc1c[nH]c2ccccc12)C(=O)N[C@H](CC(C)C)C(=O)N[C@@H](Cc1c[nH]c2ccccc12)C(=O)N[C@H](CC(C)C)C(=O)N[C@@H](Cc1c[nH]c2ccccc12)C(=O)N[C@H](CC(C)C)C(=O)N[C@@H](Cc1c[nH]c2ccccc12)C(=O)NCCO)[C@H](C)O)C(C)C)C(C)C [compound 1819] (For-VGA[dL]A[dV]V[dT]W[dL]W[dL]W[dL]W-NHCH2CH2OH) | 1.22 | 100 | +
7 | CC(C)C[C@@H](NC(=O)[C@H](C)NC(=O)[C@H](NC(=O)[C@H](C)NC(=O)CNC(=O)[C@@H](NC=O)C(C)C)[C@H](C)O)C(=O)N[C@H](C(=O)N[C@H](CC(C)C)C(=O)N[C@@H](Cc1c[nH]c2ccccc12)C(=O)N[C@@H](C(=O)N[C@@H](Cc1c[nH]c2ccccc12)C(=O)N[C@@H](C(=O)N[C@@H](Cc1c[nH]c2ccccc12)C(=O)N[C@@H](C(=O)N[C@@H](Cc1c[nH]c2ccccc12)C(=O)NCCO)C(C)C)C(C)C)C(C)C)C(C)C [compound 1842] (For-VGA[dT]A[dL]V[dL]W[dV]W[dV]W[dV]W-NHCH2CH2OH) | 1.26 | 100 | -
8 | CC(C)C[C@@H](NC(=O)[C@H](C)NC(=O)CNC(=O)[C@@H](NC=O)C(C)C)C(=O)N[C@@H](C)C(=O)N[C@H](CC(C)C)C(=O)N[C@H](C(=O)N[C@H](CC(C)C)C(=O)N[C@@H](Cc1c[nH]c2ccccc12)C(=O)N[C@H](CC(C)C)C(=O)N[C@@H](Cc1c[nH]c2ccccc12)C(=O)N[C@@H](C(=O)N[C@@H](Cc1c[nH]c2ccccc12)C(=O)N[C@H](CC(C)C)C(=O)N[C@@H](Cc1c[nH]c2ccccc12)C(=O)NCCO)[C@H](C)O)C(C)C [compound 1888] (For-VGA[dL]A[dL]V[dL]W[dL]W[dT]W[dL]W-NHCH2CH2OH) | 1.16 | 100 | -
9 | CC(C)C[C@@H](NC(=O)[C@H](C)NC(=O)CNC(=O)[C@@H](NC=O)C(C)C)C(=O)N[C@@H](C)C(=O)N[C@@H](C(=O)N[C@H](C(=O)N[C@H](CC(C)C)C(=O)N[C@@H](Cc1c[nH]c2ccccc12)C(=O)N[C@H](CC(C)C)C(=O)N[C@@H](Cc1c[nH]c2ccccc12)C(=O)N[C@@H](C(=O)N[C@@H](Cc1c[nH]c2ccccc12)C(=O)N[C@@H](C(=O)N[C@@H](Cc1c[nH]c2ccccc12)C(=O)NCCO)C(C)C)C(C)C)C(C)C)[C@H](C)O [compound 1898] (For-VGA[dL]A[dT]V[dL]W[dL]W[dV]W[dV]W-NHCH2CH2OH) | 1.07 | 100 | -
10 | CC(C)C[C@@H](NC(=O)[C@H](C)NC(=O)CNC(=O)[C@@H](NC=O)C(C)C)C(=O)N[C@@H](C)C(=O)N[C@@H](C(=O)N[C@H](C(=O)N[C@H](CC(C)C)C(=O)N[C@@H](Cc1c[nH]c2ccccc12)C(=O)N[C@H](CC(C)C)C(=O)N[C@@H](Cc1c[nH]c2ccccc12)C(=O)N[C@H](CC(C)C)C(=O)N[C@@H](Cc1c[nH]c2ccccc12)C(=O)N[C@@H](C(=O)N[C@@H](Cc1c[nH]c2ccccc12)C(=O)NCCO)[C@H](C)O)C(C)C)C(C)C [compound 1975] (For-VGA[dL]A[dV]V[dL]W[dL]W[dL]W[dT]W-NHCH2CH2OH) | 1.04 | 100 | +
11 | CC(C)[C@H](NC=O)C(=O)NCC(=O)N[C@@H](C)C(=O)N[C@@H](C(=O)N[C@@H](C)C(=O)N[C@@H](C(=O)N[C@H](C(=O)N[C@@H](C(=O)N[C@@H](Cc1c[nH]c2ccccc12)C(=O)N[C@@H](C(=O)N[C@@H](Cc1c[nH]c2ccccc12)C(=O)N[C@@H](C(=O)N[C@@H](Cc1c[nH]c2ccccc12)C(=O)N[C@@H](C(=O)N[C@@H](Cc1c[nH]c2ccccc12)C(=O)NCCO)[C@H](C)O)C(C)C)C(C)C)C(C)C)C(C)C)C(C)C)C(C)C [compound 1983] (For-VGA[dV]A[dV]V[dV]W[dV]W[dV]W[dT]W-NHCH2CH2OH) | 1.00 | 100 | -
12 | CC(C)C[C@@H](NC(=O)[C@H](Cc1c[nH]c2ccccc12)NC(=O)[C@H](NC(=O)[C@H](Cc1c[nH]c2ccccc12)NC(=O)[C@H](NC(=O)[C@@H](NC(=O)[C@H](NC(=O)[C@H](C)NC(=O)[C@H](NC(=O)[C@H](C)NC(=O)CNC(=O)[C@@H](NC=O)C(C)C)C(C)C)C(C)C)C(C)C)C(C)C)[C@H](C)O)C(=O)N[C@@H](Cc1c[nH]c2ccccc12)C(=O)N[C@@H](C(=O)N[C@@H](Cc1c[nH]c2ccccc12)C(=O)NCCO)C(C)C [compound 2066] (For-VGA[dV]A[dV]V[dV]W[dT]W[dL]W[dV]W-NHCH2CH2OH) | 1.07 | 100 | -
13 | CC(C)C[C@@H](NC(=O)[C@H](Cc1c[nH]c2ccccc12)NC(=O)[C@@H](CC(C)C)NC(=O)[C@H](Cc1c[nH]c2ccccc12)NC(=O)[C@H](NC(=O)[C@H](Cc1c[nH]c2ccccc12)NC(=O)[C@@H](CC(C)C)NC(=O)[C@@H](NC(=O)[C@H](NC(=O)[C@H](C)NC(=O)[C@H](NC(=O)[C@H](C)NC(=O)CNC(=O)[C@@H](NC=O)C(C)C)C(C)C)[C@H](C)O)C(C)C)C(C)C)C(=O)N[C@@H](Cc1c[nH]c2ccccc12)C(=O)NCCO [compound 2085] (For-VGA[dV]A[dT]V[dL]W[dV]W[dL]W[dL]W-NHCH2CH2OH) | 1.20 | 100 | -
